Results taken from US7018612B1, “Method of preparing a radioactive rhenium complex solution” (Mallinckrodt Inc., priority 1990, dated 2006).

Experiment: Influence of reaction temperature on stability of Re186-HEDP during storage at ambient temperature
Format: physicochemical

Re186-HEDP content at t=0 (labelling by heating 15 minutes in a boiling water bath (just below 100° C.), t=0): 99.12% | Re186-HEDP content at t=24 h (labelling by heating 15 minutes in a boiling water bath, storage at ambient temperature, t=24 h): 93.72%
Substance: rhenium-186 labelled 1-hydroxyethylidene diphosphonate [Re186-HEDP]
